Measurements as given in ChEMBL document CHEMBL1201862, “PubChem BioAssay data set” (2004).
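Following 48 hours of exposure in 96-well plates, responses at five concentrations were used to interpolate endpoints linearly. GI50 is the concentration that inhibits growth by half.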 Activity calls are given as the source filed them. Rule as the data show it: active = GI50 up to about 1.1 µM and inactive = higher.

Columns and labels:
Test in all cases: inhibition of tumour cell growth, NCI panel, 48 h
TK-10 = tested on: TK-10
HOP-62 = tested on: HOP-62
UO-31 = tested on: UO-31
NCI-H226 = tested on: NCI-H226
HT-29 = tested on: HT-29
HCT-15 = tested on: HCT-15
OVCAR-4 = tested on: OVCAR-4
NCI-H522 = tested on: NCI-H522
SK-OV-3 = tested on: SK-OV-3
K562 = tested on: K562
786-0 = tested on: 786-0
SN12C = tested on: SN12C
COLO 205 = tested on: COLO 205
SW-620 = tested on: SW-620
CCRF-CEM = tested on: CCRF-CEM
HCT-116 = tested on: HCT-116
HOP-92 = tested on: HOP-92

| Structure (SMILES) | GI50 (TK-10) | GI50 (HOP-62) | GI50 (UO-31) | GI50 (NCI-H226) | GI50 (HT-29) | GI50 (HCT-15) [µM] | GI50 (OVCAR-4) | GI50 (NCI-H522) | GI50 (SK-OV-3) | GI50 (K562) | GI50 (786-0) | GI50 (SN12C) | GI50 (COLO 205) | GI50 (SW-620) | GI50 (CCRF-CEM) | GI50 (HCT-116) | GI50 (HOP-92) |
| --- | --- | --- | --- | --- | --- | --- | --- | --- | --- | --- | --- | --- | --- | --- | --- | --- | --- |
| [O-][S+]1c2ccccc2N=C(c2ccc3ccccc3c2)CC1C1=CC=CCC1 (stereo not given) | 22.2 µM (inactive) | 19.1 µM (inactive) | 13.8 µM (inactive) | 19.4 µM (inactive) | 16.5 µM (inactive) | 16.7 | > 10 µM (inactive) | 16.9 µM (inactive) | 30.5 µM (inactive) | 10.3 µM (inactive) | 16 µM (inactive) | 17.4 µM (inactive) | 20.5 µM (inactive) | 18.4 µM (inactive) | 7.19 µM (inactive) | – | – |
| Cc1cc(C)c(-c2noc(-c3ccc(Cl)cc3)c2C2=NCCCN2)c(C)c1 | – | 21.8 µM (inactive) | 16.2 µM (inactive) | 29.9 µM (inactive) | 13.5 µM (inactive) | 18.5 | 97.1 µM (inactive) | 20 µM (inactive) | 18.4 µM (inactive) | 14.8 µM (inactive) | 7.45 µM (inactive) | 19.1 µM (inactive) | 13.8 µM (inactive) | 23.4 µM (inactive) | 20.6 µM (inactive) | 4.57 µM (inactive) | – |
| CC(C)(C)c1cc(C(O)(C(F)(F)F)C(F)(F)F)c2c(c1)C(C(F)(F)F)(C(F)(F)F)OC(C)(C(C)(C)C)N2 (stereo not given) | 3.27 µM (inactive) | – | 2.97 µM (inactive) | 2.27 µM (inactive) | 3.4 µM (inactive) | 3.83 | 4.62 µM (inactive) | 1.82 µM (inactive) | 2.25 µM (inactive) | 2.9 µM (inactive) | 3.34 µM (inactive) | 4.45 µM (inactive) | 2.05 µM (inactive) | 3.68 µM (inactive) | – | 3.42 µM (inactive) | < 0.01 µM (active) |
| c1cnc2c(c1)-n1cccc1C1(CCOCC1)NN2 | > 100 µM (inactive) | – | > 100 µM (inactive) | > 100 µM (inactive) | > 100 µM (inactive) | > 100 | > 100 µM (inactive) | > 100 µM (inactive) | > 100 µM (inactive) | > 100 µM (inactive) | > 100 µM (inactive) | > 100 µM (inactive) | > 100 µM (inactive) | > 100 µM (inactive) | > 100 µM (inactive) | > 100 µM (inactive) | > 100 µM (inactive) |
| O=C1CCCCCCC2=C1C(Sc1ccccc1)CC2 (stereo not given) | 36.6 µM (inactive) | > 100 µM (inactive) | 18.8 µM (inactive) | 29.5 µM (inactive) | 34 µM (inactive) | 31.7 | 63.2 µM (inactive) | 18.5 µM (inactive) | 83 µM (inactive) | 27.2 µM (inactive) | 17.7 µM (inactive) | 19.9 µM (inactive) | 62.8 µM (inactive) | 36.3 µM (inactive) | 9.08 µM (inactive) | 21.7 µM (inactive) | – |
| O=C(CC1C(=O)Nc2ccccc2S1(=O)=O)Nc1cc(Cl)ccc1Cl (stereo not given) | 20.1 µM (inactive) | – | 15.6 µM (inactive) | 14.8 µM (inactive) | 17.4 µM (inactive) | 11.5 | 16.8 µM (inactive) | – | – | 13.9 µM (inactive) | 8.55 µM (inactive) | 15.6 µM (inactive) | – | 19.4 µM (inactive) | 17.8 µM (inactive) | 14.4 µM (inactive) | 14.2 µM (inactive) |
| Cc1ccc(NC(=O)C2C(=O)N(c3ccc(C)cc3)C(=O)/C2=N\NC(N)=S)cc1 (stereo not given) | > 100 µM (inactive) | > 100 µM (inactive) | > 100 µM (inactive) | > 100 µM (inactive) | > 100 µM (inactive) | > 100 | > 100 µM (inactive) | > 100 µM (inactive) | > 100 µM (inactive) | > 100 µM (inactive) | > 100 µM (inactive) | > 100 µM (inactive) | > 100 µM (inactive) | > 100 µM (inactive) | – | > 100 µM (inactive) | > 100 µM (inactive) |
| CC12CO[C@@](C)(CC(S(=O)(=O)c3ccccc3)C1)O2 (stereo not given in full) | – | > 100 µM (inactive) | > 100 µM (inactive) | – | > 100 µM (inactive) | > 100 | > 100 µM (inactive) | > 100 µM (inactive) | > 100 µM (inactive) | > 100 µM (inactive) | > 100 µM (inactive) | > 100 µM (inactive) | > 100 µM (inactive) | > 100 µM (inactive) | > 100 µM (inactive) | > 100 µM (inactive) | > 100 µM (inactive) |
| C=C1C(=O)C23C(CC(OC(C)=O)C1[C@@H]2OC(C)=O)C1(C)C(OC(C)=O)CCC(C)(C)C1C[C@@H]3OC(C)=O (stereo not given in full) | – | 3.14 µM (inactive) | 1.8 µM (inactive) | 1.69 µM (inactive) | 1.01 µM (active) | 1.23 | 1.91 µM (inactive) | 0.453 µM (active) | 1.97 µM (inactive) | 0.755 µM (active) | 1.43 µM (inactive) | 1.46 µM (inactive) | – | 1.26 µM (inactive) | – | 1.62 µM (inactive) | 0.167 µM (active) |
